Measured values from the supplement of paper PMC11208160.

Assay: recombinant UMI read abundance after kanamycin selection (control-corrected) (log10(CPM+1)); higher = more efficient recombination; extreme values may be limits of the assay; sequences stand for … in AGTGCAGAGAAAATCGGCCAGTTTTCTCTGCCTGCAGTCCGCATGCCGTGGGACCCCTTGGGTTCTAACCTGTTGCCTAGATTTATGCAGCGGACTGCCTTTCTCCCAAAGTGATAAACCGG…AGGTTGGTTTCACT; site = the 11-nt donor
How it was run: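 Under IPTG (0.07 mM) plus kanamycin, or without selection, Escherichia coli carrying a UMI-tagged donor and donor-binding-loop pair library and a target plasmid for the IS621 bridge recombinase were plated in two replicates. Recombinant UMIs were PCR-amplified across the donor–target junction and sequenced. Counts were converted to CPM, averaged over replicates, scaled by control-derived factors and reported as log10(CPM+1).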
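Also: IS621 bridge recombinase in Escherichia coli cells against a fixed T5 target plasmid.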

Sequence | recombinant UMI read abundance (log10)
GCCACACCATGGACCGGTTTTCCCGGTAATCCGTATTTGTA (site GCCACGCCTTA) | 0.00626
GCCACACCATGGACCGGTTTTCCCGGTAATCCGTATTTGTA (site GCCACTCCTTA) | 0.0198
GCCACGGCATGGACCGGTTTTCCCGGTAATCCGTATTTGTA (site GCCACGACTTA) | 1.24
GCCACGGCATGGACCGGTTTTCCCGGTAATCCGTATTTGTA (site GCCACGCCTTA) | 0.106
GCCACGGCATGGACCGGTTTTCCCGGTAATCCGTATTTGTA (site GCCACGGCTTA) | 1.62
GCCACGGCATGGACCGGTTTTCCCGGTAATCCGTATTTGTA (site GCCACGTCTTA) | 0.163
GCCAGCGCATGGACCGGTTTTCCCGGTAATCCGTATTTGCC (site GCCAGCGCTGG) | 1.98
GCCCCGTCATGGACCGGTTTTCCCGGTAATCCGTATTTGAT (site GCCCCGTCTAT) | 2
GCCCCTTCATGGACCGGTTTTCCCGGTAATCCGTATTTGGG (site GCCCCTTCTCC) | 0.712
GCCGACACATGGACCGGTTTTCCCGGTAATCCGTATTTGTA (site GCCGACACTTA) | 1.4
GCCGATTCATGGACCGGTTTTCCCGGTAATCCGTATTTGCT (site GCCGATTCTAG) | 1.88
GCCGCCCCATGGACCGGTTTTCCCGGTAATCCGTATTTGGC (site GCCGCCCCTGC) | 0
GCCGCTTCATGGACCGGTTTTCCCGGTAATCCGTATTTGGA (site GCCGCTTCTTC) | 1.23
GCCGGGCCATGGACCGGTTTTCCCGGTAATCCGTATTTGCA (site GCCGGGCCTTG) | 0
GCCGTACCATGGACCGGTTTTCCCGGTAATCCGTATTTGTT (site GCCGTACCTAA) | 0.0103
GCCTAGCCATGGACCGGTTTTCCCGGTAATCCGTATTTGTG (site GCCTAGCCTCA) | 0.155
GCCTATACATGGACCGGTTTTCCCGGTAATCCGTATTTGAC (site GCCTATACTGT) | 2.21
GCCTGCCCATGGACCGGTTTTCCCGGTAATCCGTATTTGAT (site GCATGCCCTAT) | 0.0137
GCCTGCCCATGGACCGGTTTTCCCGGTAATCCGTATTTGAT (site GCCTGCCCTAT) | 0.201

Sequence | recombinant UMI read abundance (log10)
GCCTGCCCATGGACCGGTTTTCCCGGTAATCCGTATTTGAT (site GCGTGCCCTAT) | 0.0203
GCCTGCCCATGGACCGGTTTTCCCGGTAATCCGTATTTGAT (site GCTTGCCCTAT) | 0.00989
GCGAAAACATGGACCGGTTTTCCCGGTAATCCGTATTTGAT (site GCGAAAACTAA) | 0
GCGAAAACATGGACCGGTTTTCCCGGTAATCCGTATTTGAT (site GCGAAAACTAC) | 0.0215
GCGAAAACATGGACCGGTTTTCCCGGTAATCCGTATTTGAT (site GCGAAAACTAG) | 0
GCGAAAACATGGACCGGTTTTCCCGGTAATCCGTATTTGAT (site GCGAAAACTAT) | 1.66
GCGAAAACATGGACCGGTTTTCCCGGTAATCCGTATTTGTT (site GCGAAAACTAA) | 2.31
GCGAAAACATGGACCGGTTTTCCCGGTAATCCGTATTTGTT (site GCGAAAACTAC) | 0
GCGAAAACATGGACCGGTTTTCCCGGTAATCCGTATTTGTT (site GCGAAAACTAG) | 1.18
GCGAAAACATGGACCGGTTTTCCCGGTAATCCGTATTTGTT (site GCGAAAACTAT) | 0
GCGAAACCATGGACCGGTTTTCCCGGTAATCCGTATTTGCT (site GCGAAAACTAG) | 0
GCGAAACCATGGACCGGTTTTCCCGGTAATCCGTATTTGCT (site GCGAAACCTAG) | 0
GCGAAACCATGGACCGGTTTTCCCGGTAATCCGTATTTGCT (site GCGAAAGCTAG) | 0
GCGAAACCATGGACCGGTTTTCCCGGTAATCCGTATTTGCT (site GCGAAATCTAG) | 0
GCGAAGCCATGGACCGGTTTTCCCGGTAATCCGTATTTGGT (site GCGAAGCCTAC) | 0.885
GCGAAGCCATGGACCGGTTTTCCCGGTAATCCGTATTTGGT (site GCGAAGCCTCC) | 0.00425
GCGAAGCCATGGACCGGTTTTCCCGGTAATCCGTATTTGGT (site GCGAAGCCTGC) | 0
GCGAAGCCATGGACCGGTTTTCCCGGTAATCCGTATTTGGT (site GCGAAGCCTTC) | 0.234
GCGAAGTCATGGACCGGTTTTCCCGGTAATCCGTATTTGGG (site GCGAAGACTCC) | 0.283

Sequence | recombinant UMI read abundance (log10)
GCGAAGTCATGGACCGGTTTTCCCGGTAATCCGTATTTGGG (site GCGAAGCCTCC) | 0.0096
GCGAAGTCATGGACCGGTTTTCCCGGTAATCCGTATTTGGG (site GCGAAGGCTCC) | 0.019
GCGAAGTCATGGACCGGTTTTCCCGGTAATCCGTATTTGGG (site GCGAAGTCTCC) | 1.21
GCGACTACATGGACCGGTTTTCCCGGTAATCCGTATTTGGC (site GCGACTACTGC) | 1.97
GCGACTGCATGGACCGGTTTTCCCGGTAATCCGTATTTGCC (site GCAACTGCTGG) | 2
GCGACTGCATGGACCGGTTTTCCCGGTAATCCGTATTTGCC (site GCCACTGCTGG) | 0.516
GCGACTGCATGGACCGGTTTTCCCGGTAATCCGTATTTGCC (site GCGACTGCTGG) | 1.65
GCGACTGCATGGACCGGTTTTCCCGGTAATCCGTATTTGCC (site GCTACTGCTGG) | 0
GCGATGCCATGGACCGGTTTTCCCGGTAATCCGTATTTGGG (site GCGAAGCCTCC) | 0.00846
GCGATGCCATGGACCGGTTTTCCCGGTAATCCGTATTTGGG (site GCGACGCCTCC) | 0.0196
GCGATGCCATGGACCGGTTTTCCCGGTAATCCGTATTTGGG (site GCGAGGCCTCC) | 0.0186
GCGATGCCATGGACCGGTTTTCCCGGTAATCCGTATTTGGG (site GCGATGCCTCC) | 0.0291
GCGCAAACATGGACCGGTTTTCCCGGTAATCCGTATTTGCT (site GCGAAAACTAG) | 0
GCGCAAACATGGACCGGTTTTCCCGGTAATCCGTATTTGCT (site GCGCAAACTAG) | 1.59
GCGCAAACATGGACCGGTTTTCCCGGTAATCCGTATTTGCT (site GCGGAAACTAG) | 0
GCGCAAACATGGACCGGTTTTCCCGGTAATCCGTATTTGCT (site GCGTAAACTAG) | 0
GCGCCCACATGGACCGGTTTTCCCGGTAATCCGTATTTGTG (site GCGCCCACTCA) | 0.0198
GCGCCTACATGGACCGGTTTTCCCGGTAATCCGTATTTGTT (site GCGCCTACTAA) | 0.013
GCGCGAGCATGGACCGGTTTTCCCGGTAATCCGTATTTGGG (site GCGCGAGCTCC) | 0.163
